According to patent US6869939B2, “Formulations containing amiodarone and sulfoalkyl ether cyclodextrin” (CyDex, Inc., priority 2002, dated 2005):
Where two headings read alike, the source gives them in different places.

Columns and labels:
[1] = room temperature (not heated), pH 4.5
Text: The following table can be used to predict the ratio of components required to achieve the indicated amiodarone concentrations at room temperature (not heated) and pH 4.5.

[2] = pH 4.5
Text: The mixture can optionally further comprise a buffer or other charged species wherein the concentration of the buffer or other charged species is less than about 0.5M.

[3] = SBE7-β-CD 0.5% w/v (0.00231 Molar)
[4] = SBE7-β-CD 1% w/v (0.00462 Molar)
[5] = SBE7-β-CD 3% w/v (0.0139 Molar)
[6] = SBE7-β-CD 5% w/v (0.0231 Molar)
[7] = SBE7-β-CD 30% w/v (0.139 Molar)
[8] = SBE7-β-CD 50% w/v (0.231 Molar)
[9] = SBE7-β-CD 80% w/v (0.370 Molar), by extrapolation of phase solubility data

With CCCCc1oc2ccccc2c1C(=O)c1cc(I)c(OCCN(CC)CC)c(I)c1.Cl [Amiodarone HCl, (2-butyl-3-benzofuranyl)[4-[2-(diethylamino)ethoxy]-3,5-diiodophenyl]methanone hydrochloride] the “Amiodarone (Ami)” value [1, 3] was 0.482 mg/mL, the “Amiodarone (Ami) Molar” value [1, 3] was 0.000708 Molar and the “Amiodarone (Ami)” value [1, 4] was 3.0 mg/mL. For the same compound, the “Amiodarone (Ami) Molar” value [1, 4] was 0.0045 Molar, the “Amiodarone (Ami)” value [1, 5] was 20.6 mg/mL and the “Amiodarone (Ami) Molar” value [1, 5] was 0.03019 Molar. The “Amiodarone (Ami)” value [1, 6] was 28.8 mg/mL, the “Amiodarone (Ami) Molar” value [1, 6] was 0.0423 Molar and the “Amiodarone (Ami)” value [1, 7] was 53.8 mg/mL. The “Amiodarone (Ami) Molar” value [1, 7] was 0.079 Molar, the “Amiodarone (Ami)” value [1, 8] was 72.2 mg/mL and the “Amiodarone (Ami) Molar” value [1, 8] was 0.106 Molar. For the same compound, the “Amiodarone (Ami)” value [1, 9] was 100.8 mg/mL and the “Amiodarone (Ami) Molar” value [1, 9] was 0.148 Molar.

With “dimethyl-beta cyclodextrin [Methyl (DS˜14)]” the “times SBE7-β-CD is more effective at solubilizing amiodarone than the named cyclodextrin” value [2] was 1.7 times.
